Experimental data published in patent publication US8227463B2, “Amorphous body composed of heterocyclic compound, solid dispersion and pharmaceutical preparation each comprising the same, and process for production of the same” (Zenyaku Kogyo Kabushiki Kaisha, priority 2007, dated 2012).

Columns and labels:
[1] = Blood concentration measurement of the test compound in rats after oral administration of the preparations; assay type: in vivo, SD male rats
Experimental: 7-week old SD male rats were purchased from Charles River Laboratories Japan (Inc.), preliminarily kept for a week and then used for experiments. Fasting began 16 hours before drug administration, and each of the preparations obtained from Examples 1, 4 and 5, when used, was mixed with distilled water to make a 100 mg/5 ml/kg test compound suspension, which was administered orally. Blood was sequentially collected from the tail vein using heparin-treated glass blood collection tubes from 15 min. to 24 or 30 hours after the administration of these preparations, centrifuged (3,000 rpm, 10 min., 4° C.) to obtain plasma, and the blood concentration of the test compound was evaluated (FIG. 3).

[2] = Changes in the state of the amorphous body on storage, analysed by powder X-ray diffraction; assay type: physicochemical; conditions: ordinary temperature
Experimental: When a crystal of the test compound obtained by common procedures was analyzed using the powder X-ray diffraction method, several characteristic peaks at diffraction angles 2θ=5 to 14, and especially at 2θ=7 to 10, were observed (FIG. 1). In contrast, when the preparations obtained in Examples 1 and 2 were analyzed using the powder X-ray diffraction (XRD) method, the peaks at diffraction angles characteristic to a crystalline form were not observed, and it was clear that the test compound was in an amorphized state in these preparations (FIG. 2).
In order to investigate the changes in the state of an amorphous body of the test compound, a solid dispersion produced by the spray drying method with a 1:2.5 test compound to HPMC compounding ratio was stored under certain conditions, and changes in the state of the amorphous body of the test compound were analyzed by powder X-ray diffraction similar to Example 3.
The present tablets were filled into a glass jar, sealed and evaluated for the stability of the amorphous body after 6 months of storage at 40° C. (75% RH).

Row | SMILES | Bioavailability / absorbability of amorphized test compound ([1]; compared to the crystallized form) | Stability of the amorphous state over time [2] | Bioavailability in rats after grain refinement ([1]; grain refinement using a jet mill, a microfluidizer or an agitation mill)
1 | FC(F)c1nc2ccccc2n1-c1nc(N2CCOCC2)nc(N2CCOCC2)n1 [amorphous form of the test compound, 2-(2-difluoromethylbenzimidazol-1-yl)-4,6-dimorpholino-1,3,5-triazine] | extremely high absorbability | stable for a long period of time at ordinary temperature | –
2 | FC(F)c1nc2ccccc2n1-c1nc(N2CCOCC2)nc(N2CCOCC2)n1 [test compound, 2-(2-difluoromethylbenzimidazol-1-yl)-4,6-dimorpholino-1,3,5-triazine] | – | – | an improvement in the bioavailability was not observed
